According to US20070004653A1, “Stable lyophilized anthracycline glycosides” (priority 2005, published 2007):
Read-outs that look alike come from different tables or passages of the source.

Assays:
[1] = cited from earlier work
[2] = Stability tests of Idarubicin HCl, 1% w/v aqueous solution, pH varied with NH4OH or HCl or dissolved as is (aglycone, bis-anhydro); format: physicochemical; settings: for % aglycone / % bis-anhydro: 1% w/v aqueous solution
Description: Starting product was idarubicin hydrochloride, 1% w/v aqueous solution, the analysis of which is shown in the data reported at t=0. 3% mol of NH4OH with respect to idarubicin hydrochloride was added to the solution at t=0 and the solution was incubated at 20° C. for the indicated time. The results in table 1 show the expected rise over time of the bis-anhydro degradation product at high pH (6.69), with very little increase of aglycone.
Starting product was idarubicin hydrochloride, 1% w/v aqueous solution, the analysis of which is shown in the data reported at t=0. 1% mol of NH4OH with respect to idarubicin hydrochloride was added to the solution at t=0 and the solution was incubated at 20° C. for the indicated time.
Starting product was idarubicin hydrochloride, 1% w/v aqueous solution, the analysis of which is shown in the data reported at t=0. 3% mol of NH4OH with respect to idarubicin hydrochloride was added to the solution at t=0 and the solution was incubated at 4° C. for the indicated time.
Starting product was idarubicin hydrochloride, 1% w/v aqueous solution, the analysis of which is shown in the data reported at t=0.1% mol of NH4OH with respect to idarubicin hydrochloride was added to the solution at t=0 and the solution was incubated at 4° C. for the indicated time.
Starting product was idarubicin hydrochloride, 1% w/v aqueous solution, the analysis of which is shown in the data reported at t=0. The solution was incubated for the indicated time at 20° C. without additional chemicals. The results in table 5 show the expected rise in bis-anhydro content.
Starting product was idarubicin hydrochloride, 1% w/v aqueous solution, the analysis of which is shown in the data reported at t=0. The solution was incubated for the indicated time at 4° C. without the addition of additional chemicals.The results in table 6 show a rise in bis-anhydro content, even at 4° C.
Starting product was idarubicin hydrochloride, 1% w/v aqueous solution. At t=0, the pH of the solution was lowered by the addition of 1% mol of HCl with respect to idarubicin hydrochloride. The solution was incubated for the indicated time at 20° C.
Starting product was idarubicin hydrochloride, 1% w/v aqueous solution. At t=0, the pH of the solution was lowered by the addition of 1% mol of HCl with respect to idarubicin hydrochloride. The solution was incubated for the indicated time at 4° C.
Starting product was idarubicin hydrochloride, 1% w/v aqueous solution. At t=0, the pH of the solution was lowered to 3.6 by the addition of 1.3% mol of HCl with respect to idarubicin hydrochloride. The solution was then incubated for the indicated time at 20° C.
Starting product was idarubicin hydrochloride, 1% w/v aqueous solution. At t=0, the pH of the solution was lowered to 3.55 by the addition of 1.5% mol of HCl with respect to idarubicin hydrochloride. The solution was then incubated for the indicated time at 20° C.
Starting product was idarubicin hydrochloride, 1% w/v aqueous solution. At t=0, the pH of the solution was lowered to 3.50 by the addition of 1.7% mol of HCl with respect to idarubicin hydrochloride.
Starting product was idarubicin hydrochloride, 1% w/v aqueous solution. At t=0, the pH of the solution was lowered to 3.03 by the addition of 6.5% mol of HCl with respect to idarubicin hydrochloride.
Starting product was idarubicin hydrochloride, 1% w/v aqueous solution. At t=0, the pH of the solution was lowered to 2.18 by the addition of 48% mol of HCl with respect to idarubicin hydrochloride.

[3] = HCl 1% mol, pH 3.91, 4° C., 169 hr
[4] = HCl 1% mol, pH 3.91, 4° C., 407 hr
[5] = HCl 1% mol, pH 3.91, 20° C., 28 hr
[6] = HCl 1% mol, pH 3.91, 20° C., 168 hr
[7] = HCl 1% mol, pH 3.91, 20° C., 406 hr
[8] = HCl to pH = 2.18 (extra HCl = 48% mol), 4° C., 30 hr
[9] = HCl to pH = 2.18 (extra HCl = 48% mol), 4° C., 119 hr
[10] = HCl to pH = 2.18 (extra HCl = 48% mol), 20° C., 27 hr
[11] = HCl to pH = 2.18 (extra HCl = 48% mol), 20° C., 118 hr
[12] = HCl to pH = 3.03 (extra HCl = 6.5% mol), 20° C., 366 hr
[13] = HCl to pH = 3.50 (extra HCl = 1.7% mol), 20° C., 366 hr
[14] = HCl to pH = 3.55 (extra HCl = 1.5% mol), 20° C., 366 hr
[15] = HCl to pH = 3.60 (extra HCl = 1.3% mol), 20° C., 366 hr
[16] = NH3 1% mol, pH 6.56, 4° C., 34 hr
[17] = NH3 1% mol, pH 6.56, 4° C., 56 hr
[18] = NH3 1% mol, pH 6.56, 4° C., 149 hr
[19] = NH3 1% mol, pH 6.56, 20° C., 29 hr
[20] = NH3 1% mol, pH 6.56, 20° C., 54 hr
[21] = NH3 1% mol, pH 6.56, 20° C., 146 hr
[22] = NH3 3% mol, pH 6.69, 4° C., 28 hr
[23] = NH3 3% mol, pH 6.69, 4° C., 129 hr
[24] = NH3 3% mol, pH 6.69, 20° C., 25 hr
[25] = NH3 3% mol, pH 6.69, 20° C., 122 hr
[26] = dissolved as is, pH 5.66, 4° C., 31 hr
[27] = dissolved as is, pH 5.66, 4° C., 154 hr
[28] = dissolved as is, pH 5.66, 20° C., 26 hr
[29] = dissolved as is, pH 5.66, 20° C., 57 hr
[30] = dissolved as is, pH 5.66, 20° C., 148 hr

For `CC(=O)[C@]1(O)Cc2c(O)c3c(c(O)c2[C@@H](O[C@H]2C[C@@H](N)[C@H](O)C(C)O2)C1)C(=O)c1ccccc1C3=O.Cl` (stereo partly shown) [Idarubicin HCl, Idarubicin hydrochloride], the solubility ([1]; in acetone, chloroform, and methylene chloride) is listed as “practically insoluble”, the solubility ([1]; in water, methanol, and other polar solvents like dimethylformamide) is listed as “soluble” and the solubility ([1]; in water) is listed as “not very soluble”. The “% aglycone” value ([2]; HCl 1% mol, pH 3.91, 4° C., 33 hr) was 0.57%, the “% aglycone” value [2, 3] was 0.58% and the “% bis-anhydro” value [2, 3] was 0.06%. The “% aglycone” value [2, 4] was 0.58%, the “% bis-anhydro” value [2, 4] was 0.05% and the “% aglycone” value ([2]; HCl 1% mol, pH 3.91, 4° C., t = 0) was 0.59%. For the same compound, the “% aglycone” value [2, 5] was 0.57%, the “% bis-anhydro” value [2, 5] was 0.04% and the “% aglycone” value [2, 6] was 0.58%. The “% bis-anhydro” value [2, 6] was 0.09%, the “% aglycone” value [2, 7] was 0.59% and the “% bis-anhydro” value [2, 7] was 0.25%. The “% aglycone” value ([2]; HCl 1% mol, pH 3.91, 20° C., t = 0) was 0.59%, the “% aglycone” value [2, 8] was 0.61% and the “% bis-anhydro” value [2, 8] was 0.06%. For the same compound, the “% aglycone” value [2, 9] was 0.63%, the “% bis-anhydro” value [2, 9] was 0.06% and the “% aglycone” value ([2]; HCl to pH = 2.18 (extra HCl = 48% mol), 4° C., t = 0) was 0.59%. The “% aglycone” value [2, 10] was 0.72%, the “% bis-anhydro” value [2, 10] was 0.06% and the “% aglycone” value [2, 11] was 1.03%. For the same compound, the “% bis-anhydro” value [2, 11] was 0.06%, the “% aglycone” value ([2]; HCl to pH = 2.18 (extra HCl = 48% mol), 20° C., t = 0) was 0.59% and the “% aglycone” value ([2]; HCl to pH = 3.03 (extra HCl = 6.5% mol), 4° C., 29 hr) was 0.61%. For the same compound, the “% aglycone” value ([2]; HCl to pH = 3.03 (extra HCl = 6.5% mol), 4° C., 80 hr) was 0.61%, the “% aglycone” value ([2]; HCl to pH = 3.03 (extra HCl = 6.5% mol), 4° C., 364 hr) was 0.61% and the “% aglycone” value ([2]; HCl to pH = 3.03 (extra HCl = 6.5% mol), 4° C., t = 0) was 0.59%. The “% aglycone” value ([2]; HCl to pH = 3.03 (extra HCl = 6.5% mol), 20° C., 22 hr) was 0.62%, the “% aglycone” value ([2]; HCl to pH = 3.03 (extra HCl = 6.5% mol), 20° C., 76 hr) was 0.63% and the “% aglycone” value ([2]; HCl to pH = 3.03 (extra HCl = 6.5% mol), 20° C., 124 hr) was 0.65%. For the same compound, the “% aglycone” value [2, 12] was 0.77%, the “% bis-anhydro” value [2, 12] was 0.04% and the “% aglycone” value ([2]; HCl to pH = 3.03 (extra HCl = 6.5% mol), 20° C., t = 0) was 0.59%. The “% aglycone” value ([2]; HCl to pH = 3.50 (extra HCl = 1.7% mol), 20° C., 22 hr) was 0.59%, the “% aglycone” value ([2]; HCl to pH = 3.50 (extra HCl = 1.7% mol), 20° C., 76 hr) was 0.59% and the “% aglycone” value ([2]; HCl to pH = 3.50 (extra HCl = 1.7% mol), 20° C., 124 hr) was 0.60%. The “% aglycone” value [2, 13] was 0.61%, the “% bis-anhydro” value [2, 13] was 0.01% and the “% aglycone” value ([2]; HCl to pH = 3.50 (extra HCl = 1.7% mol), 20° C., t = 0) was 0.59%. For the same compound, the “% aglycone” value ([2]; HCl to pH = 3.55 (extra HCl = 1.5% mol), 20° C., 22 hr) was 0.59%, the “% aglycone” value ([2]; HCl to pH = 3.55 (extra HCl = 1.5% mol), 20° C., 76 hr) was 0.59% and the “% aglycone” value ([2]; HCl to pH = 3.55 (extra HCl = 1.5% mol), 20° C., 124 hr) was 0.60%. The “% aglycone” value [2, 14] was 0.61%, the “% bis-anhydro” value [2, 14] was 0.01% and the “% aglycone” value ([2]; HCl to pH = 3.55 (extra HCl = 1.5% mol), 20° C., t = 0) was 0.59%. For the same compound, the “% aglycone” value ([2]; HCl to pH = 3.60 (extra HCl = 1.3% mol), 20° C., 22 hr) was 0.59%, the “% aglycone” value ([2]; HCl to pH = 3.60 (extra HCl = 1.3% mol), 20° C., 76 hr) was 0.59% and the “% aglycone” value ([2]; HCl to pH = 3.60 (extra HCl = 1.3% mol), 20° C., 124 hr) was 0.60%. For the same compound, the “% aglycone” value [2, 15] was 0.61%, the “% bis-anhydro” value [2, 15] was 0.01% and the “% aglycone” value ([2]; HCl to pH = 3.60 (extra HCl = 1.3% mol), 20° C., t = 0) was 0.59%. For the same compound, the “% aglycone” value [2, 16] was 0.58%, the “% bis-anhydro” value [2, 16] was 0.50% and the “% aglycone” value [2, 17] was 0.58%. The “% bis-anhydro” value [2, 17] was 0.74%, the “% aglycone” value [2, 18] was 0.58% and the “% bis-anhydro” value [2, 18] was 1.33%. For the same compound, the “% aglycone” value ([2]; NH3 1% mol, pH 6.56, 4° C., t = 0) was 0.59%, the “% aglycone” value [2, 19] was 0.58% and the “% bis-anhydro” value [2, 19] was 2.37%. The “% aglycone” value [2, 20] was 0.58%, the “% bis-anhydro” value [2, 20] was 3.56% and the “% aglycone” value [2, 21] was 0.59%. The “% bis-anhydro” value [2, 21] was 8.03%, the “% aglycone” value ([2]; NH3 1% mol, pH 6.56, 20° C., t = 0) was 0.59% and the “% aglycone” value [2, 22] was 0.59%. The “% bis-anhydro” value [2, 22] was 0.63%, the “% aglycone” value [2, 23] was 0.59% and the “% bis-anhydro” value [2, 23] was 1.87%. The “% aglycone” value ([2]; NH3 3% mol, pH 6.69, 4° C., t = 0) was 0.59%, the “% aglycone” value [2, 24] was 0.60% and the “% bis-anhydro” value [2, 24] was 3.00%. The “% aglycone” value [2, 25] was 0.61%, the “% bis-anhydro” value [2, 25] was 13.46% and the “% aglycone” value ([2]; NH3 3% mol, pH 6.69, 20° C., t = 0) was 0.59%. For the same compound, the “% aglycone” value [2, 26] was 0.57%, the “% bis-anhydro” value [2, 26] was 0.11% and the “% aglycone” value [2, 27] was 0.57%. For the same compound, the “% bis-anhydro” value [2, 27] was 0.30%, the “% aglycone” value ([2]; dissolved as is, pH 5.66, 4° C., t = 0) was 0.59% and the “% aglycone” value [2, 28] was 0.57%. The “% bis-anhydro” value [2, 28] was 0.41%, the “% aglycone” value [2, 29] was 0.58% and the “% bis-anhydro” value [2, 29] was 0.84%. For the same compound, the “% aglycone” value [2, 30] was 0.58%, the “% bis-anhydro” value [2, 30] was 1.20% and the “% aglycone” value ([2]; dissolved as is, pH 5.66, 20° C., t = 0) was 0.59%. For the same compound, the “pH at which found to be most stable” value ([2]; lowest amount of aglycon and bis-anhydro impurities, constant over time even at 20° C.) was 3.5.
